Test results taken from patent publication US20080292586A1 (priority 2005, published 2008).
Values after ≈ are worked out from the molar mass of the structure shown.

What was measured:
[1] = test system: H5N1 Avian influenza virus (A/VN/1203/04); assay: microbe, parasite or virus in culture; format: cell-based
MDBK cells = settings: bovine
[2] = Influenza A virus, H5N1, MDBK, 72 h

NC(=O)c1ncn([C@@H]2O[C@H](CO)[C@@H](O)[C@H]2O)n1 [Ribavirin]
IC25 [1]: 1.01 µg/mL (≈ 4.14 µM)
IC50 ([1]; Influenza A virus, H5N1, MDBK): 1.96 µg/mL (≈ 8.03 µM)
IC50 [1, 2]: 1.69 µg/mL (≈ 6.92 µM)
IC90 [1, 2]: 5.01 µg/mL (≈ 20.5 µM)
cytotoxicity profile (in words) (MDBK cells): toxic at concentrations above that which protected 80% of cells from H5N1 infection
